Reference: publication PMC8528049, “Expanding the scope of native chemical ligation – templated small molecule drug synthesis via benzanilide formation” (Chemical Science, 2021)
Where two headings read alike, the source gives them in different places.

Key:
[1] = biological target: non-phosphorylated Abl1 kinase (Homo sapiens, UniProt P00519); experiment: KdELECT assay (DiscoverX), dissociation constants with Abl1 kinase
Bcr–Abl = conditions: cited from earlier work
K562 cells = experiment: alamarBlue cell viability assay on K562 cells; type: cell-based; conditions: Homo sapiens
Protocol: Cell culture and cell viability assay
K562 cells were cultured in DMEM supplemented with 10% FCS, 4 mM glutamine, 100 U · mL-1 […]
assays , c e l ls were seeded on a 96-well plate (10000 cells/well), followed by the immediate addition of the test compounds (100 µL, serial dilutions in medium). Untreated cells were used as controls and complete medium without cells was used to determine the background signal o f the assay . Afte r […]
1:10, v:v, in PBS) was added to each well. […]
reader from PerkinElmer (Waltham, USA). IC 50 values were calculated from triplicates w it h a 1 3 -po i n t dose-response curve using the Hill equation. […]

[2] = Dissociation constant (Kd) of complexes formed with Abl1 kinase, non-phosphorylated Abl1 kinase, calculated from quadruplicates, mean ± SD
[3] = Kd, Replicate 1, non-phosphorylated Abl1 kinase, single replicate 1, Hill equation
[4] = Kd, Replicate 2, non-phosphorylated Abl1 kinase, single replicate 2, Hill equation
[5] = Kd, Replicate 3, non-phosphorylated Abl1 kinase, single replicate 3, Hill equation
[6] = Kd, Replicate 4, non-phosphorylated Abl1 kinase, single replicate 4, Hill equation
[7] = 96 h, single replicate 1, read-out: IC50, Replicate 1
[8] = 96 h, single replicate 2, read-out: IC50, Replicate 2
[9] = 96 h, single replicate 3, read-out: IC50, Replicate 3
[10] = 96 h treatment, calculated from triplicates, read-out: IC50 on K562 cells, determined by alamarBlue assay

non-phosphorylated Abl1 kinase, sequence (P00519 whole entry): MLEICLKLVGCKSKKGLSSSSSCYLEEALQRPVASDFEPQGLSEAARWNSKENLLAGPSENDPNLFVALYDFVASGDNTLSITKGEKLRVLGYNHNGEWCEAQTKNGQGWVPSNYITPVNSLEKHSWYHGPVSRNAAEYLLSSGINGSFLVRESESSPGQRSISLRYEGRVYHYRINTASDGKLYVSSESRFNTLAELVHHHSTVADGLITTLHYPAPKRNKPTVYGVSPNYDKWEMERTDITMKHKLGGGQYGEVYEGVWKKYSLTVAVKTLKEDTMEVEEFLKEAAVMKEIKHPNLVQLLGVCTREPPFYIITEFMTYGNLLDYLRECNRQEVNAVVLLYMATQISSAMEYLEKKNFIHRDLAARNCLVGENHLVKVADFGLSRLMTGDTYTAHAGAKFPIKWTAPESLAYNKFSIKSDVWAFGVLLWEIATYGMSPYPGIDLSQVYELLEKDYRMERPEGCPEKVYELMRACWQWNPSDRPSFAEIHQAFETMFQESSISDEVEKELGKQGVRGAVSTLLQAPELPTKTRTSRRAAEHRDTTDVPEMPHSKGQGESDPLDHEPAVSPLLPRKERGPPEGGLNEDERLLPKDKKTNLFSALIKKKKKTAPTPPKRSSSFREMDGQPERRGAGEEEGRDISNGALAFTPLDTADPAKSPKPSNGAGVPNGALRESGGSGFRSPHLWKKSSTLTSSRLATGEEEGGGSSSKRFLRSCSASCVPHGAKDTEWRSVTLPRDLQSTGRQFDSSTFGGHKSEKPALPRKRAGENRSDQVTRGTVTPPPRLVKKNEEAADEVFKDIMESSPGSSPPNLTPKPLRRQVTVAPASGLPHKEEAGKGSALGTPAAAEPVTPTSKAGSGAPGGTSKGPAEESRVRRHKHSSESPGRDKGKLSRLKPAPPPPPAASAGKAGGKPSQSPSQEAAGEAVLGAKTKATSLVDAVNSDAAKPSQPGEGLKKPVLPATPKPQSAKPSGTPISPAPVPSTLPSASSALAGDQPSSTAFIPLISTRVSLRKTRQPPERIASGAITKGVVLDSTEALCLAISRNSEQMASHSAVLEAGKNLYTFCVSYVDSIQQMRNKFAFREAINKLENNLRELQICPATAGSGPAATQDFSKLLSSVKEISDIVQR

SMILES | Kd [1, 2] [nM] | Kd [1, 3] [nM] | Kd [1, 4] [nM] | Kd [1, 5] [nM] | Kd [1, 6] [nM] | IC50 for inhibition of kinases such as Bcr–Abl (Bcr–Abl) | IC50 (K562 cells; [7]) [nM] | IC50 (K562 cells; [8]) [nM] | IC50 (K562 cells; [9]) [nM] | IC50 (K562 cells; [10]) [nM]
Cc1ccc(C(=O)Nc2ccc(CN3CCN(C)CC3)c(C(F)(F)F)c2)cc1C#Cc1cnc2[nH]ncc2c1 [GZD824 (3), GZD824, reference compound] | 0.6 ± 0.3 | 1 | 0.7 | 0.3 | 0.4 | low nanomolar range |  |  |  | 
Cc1ccc(C(=O)Nc2cc(C(F)(F)F)c(CN3CCN(C)CC3)cc2S)cc1C#Cc1cnc2[nH]ncc2c1 [GZD824-SH (3a)] | 0.9 ± 0.4 | 1.2 | 1.4 | 0.5 | 0.5 |  |  |  |  | 
Cc1cn(-c2cc(NC(=O)c3ccc(C)c(Nc4nccc(-c5cccnc5)n4)c3)cc(C(F)(F)F)c2)cn1 [Nilotinib (1), Nilotinib] |  |  |  |  |  | low nanomolar range |  |  |  | 
Cc1cn(-c2cc(C(F)(F)F)cc(NC(=O)c3ccc(C)c(Nc4nccc(-c5cccnc5)n4)c3)c2S)cn1 [Nilotinib-SH (1a)] | 881 ± 151 | 1140 | 793 | 791 | 797 |  |  |  |  | 
Cc1ccc(C(=O)Nc2ccc(CN3CCN(C)CC3)c(C(F)(F)F)c2)cc1C#Cc1cnc2cccnn12 [Ponatinib (2), Ponatinib, reference compound] |  |  |  |  |  |  | 3.5 | 3.6 | 3.1 | 3.4 ± 0.2
Cc1ccc(-c2nc3cc(C(F)(F)F)c(CN4CCN(C)CC4)cc3s2)cc1C#Cc1cnc2cccnn12 [Ponatinib-BT (2b)] | 8.4 ± 2.3 | 11.6 | 9.5 | 6.4 | 6.2 |  | 118 | 115 | 126 | 120 ± 5
Cc1ccc(C(=O)Nc2cc(C(F)(F)F)c(CN3CCN(C)CC3)cc2S)cc1C#Cc1cnc2cccnn12 [Ponatinib-SH (2a)] | 0.6 | 0.5 | 0.7 | 0.6 | 0.6 |  | 392 | 343 | 326 | 354 ± 28
